{"source": "patent US20230414599A1", "about": "“NICOTINAMIDE, NICOTINAMIDE PRECURSORS AND NICOTINAMIDE METABOLITES AND COMPOSITIONS THEREOF FOR REDUCING THE TIME TO RESOLUTION OF SYMPTOMS IN PATIENTS WITH COVID-19 AND OTHER VIRAL INFECTIONS” (CONARIS RESEARCH INSTITUTE AG, priority 2020, published 2023)", "origin": "cited, not measured here", "test_system": "COVID-19", "details": "patients with mild or moderate COVID-19; interim analysis; cited from earlier work", "data": [{"molecule": "CC(C)C(=O)OC[C@H]1O[C@@H](n2ccc(NO)nc2=O)[C@H](O)[C@@H]1O", "note": "[molnupiravir]", "values": [{"measurement": "Reduction of the risk of hospitalization or death compared to placebo", "result": "approximately 50%"}]}]}
